Assay results as given in ChEMBL document CHEMBL1914411, “Synthesis of lipophilic dimeric C-7/C-7-linked ciprofloxacin and C-6/C-6-linked levofloxacin derivatives. Versatile in vitro biological evaluations of monomeric and dimeric fluoroquinolone derivatives as potential antitumor, antibacterial or antimycobacterial agents” (Eur J Med Chem, 2011).
Values after ≈ are worked out from the molar mass of the structure shown. Active and inactive are the calls of the source. No rule for the calls is given here.

Tests used:
LoVo = experiment: Antiproliferative activity against human LoVo cells after 120 hrs by MTT asasy; assay type: functional, cell-based
Pseudomonas aeruginosa = experiment: Antimicrobial activity against Pseudomonas aeruginosa CIP 82.118 after 18 to 24 hrs by broth microdilution method; assay type: functional
PC-3 = experiment: Antiproliferative activity against human PC3 cells after 120 hrs by MTT asasy; assay type: functional, cell-based; details: PC-3, 120 h
[1] = system: Mycobacterium tuberculosis; experiment: Antimycobacterial activity against Mycobacterium tuberculosis H37Rv after 6 days by MTT colorimetric microassay; assay type: functional, organism-based; details: 144 h
Staphylococcus aureus [2] = experiment: Antimicrobial activity against Staphylococcus aureus CIP 4.83 after 18 to 24 hrs by broth microdilution method; assay type: functional
[3] = Antiproliferative activity against human U373MG cells after 120 hrs by MTT asasy; assay type: functional, cell-based, U-373MG ATCC; details: U373 MG
[4] = system: Mycobacterium tuberculosis; experiment: Antimycobacterial activity against Mycobacterium tuberculosis H37Rv assessed as growth inhibition at 1 uM after 6 days by MTT colorimetric microassay; assay type: functional; details: 144 h, read-out: GI
[5] = system: Mycobacterium tuberculosis; experiment: Antimycobacterial activity against Mycobacterium tuberculosis H37Rv assessed as growth inhibition at 10 uM after 6 days by MTT colorimetric microassay; assay type: functional; details: 144 h, read-out: GI
MCF7 = experiment: Antiproliferative activity against human MCF7 cells after 120 hrs by MTT asasy; assay type: functional, cell-based; details: MCF7, 120 h
A549 = experiment: Antiproliferative activity against human A549 cells after 120 hrs by MTT asasy; assay type: functional, cell-based; details: A549, 120 h
[6] = system: Mycobacterium tuberculosis; experiment: Antimycobacterial activity against Mycobacterium tuberculosis H37Rv assessed as growth inhibition at 0.1 uM after 6 days by MTT colorimetric microassay; assay type: functional, organism-based
[7] = Solubility of compound in cell medium at 20 uM at 37 degC after 24 hrs; assay type: physicochemical
Escherichia coli = experiment: Antimicrobial activity against Escherichia coli CIP 53126 after 18 to 24 hrs by broth microdilution method; assay type: functional
Enterococcus hirae = experiment: Antimicrobial activity against Enterococcus hirae CIP 5855 after 18 to 24 hrs by broth microdilution method; assay type: functional
Staphylococcus aureus [8] = experiment: Antimicrobial activity against methicillin-resistant Staphylococcus aureus ATCC 33591 after 18 to 24 hrs by broth microdilution method; assay type: functional
Staphylococcus aureus [9] = experiment: Antimicrobial activity against multidrug-resistant Staphylococcus aureus isolate 2 after 18 to 24 hrs by broth microdilution method; assay type: functional
Staphylococcus aureus [10] = experiment: Ratio of ciprofloxacin MIC to compound MIC for multidrug-resistant Staphylococcus aureus isolate 1; assay type: functional
Staphylococcus aureus [11] = experiment: Antimicrobial activity against multidrug-resistant Staphylococcus aureus isolate 1 after 18 to 24 hrs by broth microdilution method; assay type: functional
Staphylococcus aureus [12] = experiment: Ratio of ciprofloxacin MIC to compound MIC for multidrug-resistant Staphylococcus aureus isolate 2; assay type: functional
Staphylococcus aureus [13] = experiment: Ratio of ciprofloxacin MIC to compound MIC for methicillin-resistant Staphylococcus aureus ATCC 33592; assay type: functional
Staphylococcus aureus [14] = experiment: Antimicrobial activity against methicillin-resistant Staphylococcus aureus ATCC 33592 after 18 to 24 hrs by broth microdilution method; assay type: functional

Structure (SMILES) | MBC (Pseudomonas aeruginosa) | MIC (Pseudomonas aeruginosa) | IC50 [1] | MIC [1] | MBC (Staphylococcus aureus [2]) | MIC (Staphylococcus aureus [2]) | IC50 [3] | inhibition of growth at 10 µM [5] | growth inhibition (GI) [6] | solubility [7] | MBC (Escherichia coli) | MIC (Escherichia coli) | MBC (Enterococcus hirae) | MIC (Enterococcus hirae) | MBC (Staphylococcus aureus [8]) | MIC (Staphylococcus aureus [8]) | MBC (Staphylococcus aureus [9]) | MIC (Staphylococcus aureus [9]) | MBC (Staphylococcus aureus [11]) | MIC (Staphylococcus aureus [11]) | also measured
C[C@H]1COc2c(N3CCN(C)CC3)c(F)cc3c(=O)c(C(=O)NCCCCCCCCCNC(=O)c4cn5c6c(c(N7CCN(C)CC7)c(F)cc6c4=O)OC[C@@H]5C)cn1c23 | 250 µM (≈ 211 µg/mL) | 62.5 µM (≈ 52.8 µg/mL) | 2.5 µM | 5 µM (≈ 4.23 µg/mL) | 31.2 µM (≈ 26.4 µg/mL) | 31.2 µM (≈ 26.4 µg/mL) | 0.2 µM | 60% | inactive | soluble | 3.9 µM (≈ 3.3 µg/mL) | 3.9 µM (≈ 3.3 µg/mL) | 31.2 µM (≈ 26.4 µg/mL) | 31.2 µM (≈ 26.4 µg/mL) |  |  |  |  |  |  | IC50 (LoVo): 0.2 µM; IC50 (PC-3): 0.2 µM; inhibition of growth at 1 µM [4]: 20%; IC50 (MCF7): 0.2 µM; IC50 (A549): 0.2 µM
CCCCCCCCCC(=O)OCC(=O)N1CCN(c2cc3c(cc2F)c(=O)c(C(=O)O)cn3C2CC2)CC1 | 250 µM (≈ 136 µg/mL) | 31.2 µM (≈ 17 µg/mL) |  |  | ≤ 0.97 µM | ≤ 0.97 µM |  | > 95% | inactive |  | 15.6 µM (≈ 8.48 µg/mL) | 15.6 µM (≈ 8.48 µg/mL) | 15.6 µM (≈ 8.48 µg/mL) | 7.8 µM (≈ 4.24 µg/mL) | 0.48 µM (≈ 0.261 µg/mL) | 0.24 µM (≈ 0.13 µg/mL) | 15.6 µM (≈ 8.48 µg/mL) | 7.8 µM (≈ 4.24 µg/mL) | 15.6 µM (≈ 8.48 µg/mL) | 7.8 µM (≈ 4.24 µg/mL) | Ratio (Staphylococcus aureus [10]): 2; Ratio (Staphylococcus aureus [12]): 2
C[C@H]1COc2c(N3CCN(C)CC3)c(F)cc3c(=O)c(C(=O)NCCCCCCCCCCCCNC(=O)c4cn5c6c(c(N7CCN(C)CC7)c(F)cc6c4=O)OC[C@@H]5C)cn1c23 | 31.2 µM (≈ 27.7 µg/mL) | 31.2 µM (≈ 27.7 µg/mL) | 2.1 µM | 5 µM (≈ 4.44 µg/mL) | 1.9 µM (≈ 1.69 µg/mL) | 1.9 µM (≈ 1.69 µg/mL) |  | 60% | inactive | Insoluble | ≤ 0.97 µM | ≤ 0.97 µM | 3.9 µM (≈ 3.46 µg/mL) | 3.9 µM (≈ 3.46 µg/mL) |  |  |  |  |  |  | 
CCCCOC(=O)N1CCN(c2cc3c(cc2F)c(=O)c(C(=O)O)cn3C2CC2)CC1 | 250 µM (≈ 108 µg/mL) | 62.5 µM (≈ 27 µg/mL) |  |  | ≤ 0.12 µM | ≤ 0.06 µM | 31 µM |  | inactive |  | 31.2 µM (≈ 13.5 µg/mL) | 7.8 µM (≈ 3.37 µg/mL) | 7.8 µM (≈ 3.37 µg/mL) | 3.9 µM (≈ 1.68 µg/mL) | 0.12 µM (≈ 0.0518 µg/mL) | 0.03 µM (≈ 0.0129 µg/mL) | 31.2 µM (≈ 13.5 µg/mL) | 31.2 µM (≈ 13.5 µg/mL) | 500 µM (≈ 216 µg/mL) | 62.5 µM (≈ 27 µg/mL) | Ratio (Staphylococcus aureus [13]): 63; MBC (Staphylococcus aureus [14]): 0.12 µM (≈ 0.0518 µg/mL)
CCCCCC(=O)OCC(=O)N1CCN(c2cc3c(cc2F)c(=O)c(C(=O)O)cn3C2CC2)CC1 | 250 µM (≈ 122 µg/mL) | 62.5 µM (≈ 30.5 µg/mL) |  |  | ≤ 0.24 µM | ≤ 0.03 µM |  | > 95% | inactive |  | 31.2 µM (≈ 15.2 µg/mL) | 31.2 µM (≈ 15.2 µg/mL) | ≤ 0.97 µM | ≤ 0.97 µM | 0.06 µM (≈ 0.0293 µg/mL) | 0.03 µM (≈ 0.0146 µg/mL) | 15.6 µM (≈ 7.61 µg/mL) | 7.8 µM (≈ 3.8 µg/mL) | 500 µM (≈ 244 µg/mL) | 15.6 µM (≈ 7.61 µg/mL) | Ratio (Staphylococcus aureus [10]): 2; Ratio (Staphylococcus aureus [12]): 2
C[C@H]1COc2c(N3CCN(C)CC3)c(F)cc3c(=O)c(C(=O)NCCCCCCCCCCNC(=O)c4cn5c6c(c(N7CCN(C)CC7)c(F)cc6c4=O)OC[C@@H]5C)cn1c23 | 62.5 µM (≈ 53.7 µg/mL) | 31.2 µM (≈ 26.8 µg/mL) | 2.4 µM | 5 µM (≈ 4.3 µg/mL) | 7.8 µM (≈ 6.7 µg/mL) | 7.8 µM (≈ 6.7 µg/mL) |  | 60% | inactive | Insoluble | ≤ 0.97 µM | ≤ 0.97 µM | 62.5 µM (≈ 53.7 µg/mL) | 31.2 µM (≈ 26.8 µg/mL) |  |  |  |  |  |  | 
C[C@H]1COc2c(N3CCN(C)CC3)c(F)cc3c(=O)c(C(=O)O)cn1c23 [LEVOFLOXACIN] | ≤ 0.97 µM | ≤ 0.97 µM | 0.8 µM | 2.5 µM (≈ 0.903 µg/mL) | ≤ 0.97 µM | ≤ 0.97 µM | 67 µM | 96% | inactive |  | ≤ 0.97 µM | ≤ 0.97 µM | 1.9 µM (≈ 0.687 µg/mL) | ≤ 0.97 µM |  |  |  |  |  |  | IC50 (PC-3): 67 µM; inhibition of growth at 1 µM [4]: 85%; IC50 (MCF7): 67 µM; IC50 (A549): 67 µM
O=C(O)c1cn(C2CC2)c2cc(N3CCN(C(=O)CCCCCCCCCCCCCC(=O)N4CCN(c5cc6c(cc5F)c(=O)c(C(=O)O)cn6C5CC5)CC4)CC3)c(F)cc2c1=O | 250 µM (≈ 225 µg/mL) | 62.5 µM (≈ 56.2 µg/mL) |  |  | 1.9 µM (≈ 1.71 µg/mL) | ≤ 0.06 µM |  | 40% | inactive |  | 500 µM (≈ 450 µg/mL) | 62.5 µM (≈ 56.2 µg/mL) | 500 µM (≈ 450 µg/mL) | 125 µM (≈ 112 µg/mL) | 0.97 µM (≈ 0.872 µg/mL) | 0.06 µM (≈ 0.0539 µg/mL) | 31.2 µM (≈ 28.1 µg/mL) | 15.6 µM (≈ 14 µg/mL) | 500 µM (≈ 450 µg/mL) | 1.9 µM (≈ 1.71 µg/mL) | Ratio (Staphylococcus aureus [13]): 8; MBC (Staphylococcus aureus [14]): 0.48 µM (≈ 0.432 µg/mL); MIC (Staphylococcus aureus [14]): 0.06 µM (≈ 0.0539 µg/mL)
